Assay results: ChEMBL document CHEMBL4033663, “Design, combinatorial synthesis and biological evaluations of novel 3-amino-1'-((1-aryl-1H-1,2,3-triazol-5-yl)methyl)-2'-oxospiro[benzo[a] pyrano[2,3-c]phenazine-1,3'-indoline]-2-carbonitrile antitumor hybrid molecules” (Eur J Med Chem, 2017)

How the values were obtained:
HUVEC = test: Antiproliferative activity against human HUVEC cells after 48 hrs by MTT assay; assay type: cell-based
HCT-116 = test: Antiproliferative activity against human HCT116 cells after 48 hrs by MTT assay; assay type: functional, cell-based; conditions: HCT-116, 48 h
L02 = test: Antiproliferative activity against human L02 cells after 48 hrs by MTT assay; assay type: cell-based; conditions: L02, 48 h
A549 = test: Antiproliferative activity against human A549 cells after 48 hrs by MTT assay; assay type: functional, cell-based; conditions: A549, 48 h
HepG2 = test: Antiproliferative activity against human HepG2 cells after 48 hrs by MTT assay; assay type: functional, cell-based; conditions: HepG2, 48 h
MCF7 = test: Antiproliferative activity against human MCF7 cells after 48 hrs by MTT assay; assay type: functional, cell-based; conditions: MCF7, 48 h

IC50 (HCT-116) [µM] | IC50 (A549) [µM] | IC50 (HepG2) [µM] | IC50 (MCF7) [µM] | Structure (SMILES) | IC50 (HUVEC) [µM] | IC50 (L02) [µM]
> 50 | > 50 | > 50 | > 50 | N#CC1=C(N)Oc2c(N)cc3nc4ccccc4nc3c2C12C(=O)N(Cc1cnnn1-c1ccc([N+](=O)[O-])cc1)c1ccccc12 (configuration not stated) | > 50 | > 50
> 50 | > 50 | > 50 | > 50 | Cc1ccc(C)c(-n2nncc2CN2C(=O)C3(C(C#N)=C(N)Oc4c3c3nc5ccccc5nc3c3ccccc43)c3ccccc32)c1 (configuration not stated) | > 50 | > 50
> 50 | > 50 | > 50 | > 50 | COc1ccc(-n2nncc2CN2C(=O)C3(C(C#N)=C(N)Oc4c(N)cc5nc6ccccc6nc5c43)c3ccccc32)cc1 (configuration not stated) | > 50 | > 50
> 50 | 31.2 | > 50 | > 50 | Cc1cc(C)cc(-n2nncc2CN2C(=O)C3(C(C#N)=C(N)Oc4c(N)cc5nc6ccccc6nc5c43)c3ccccc32)c1 (configuration not stated) | > 50 | > 50
> 50 | 43.4 | > 50 | 17.8 | N#CC1=C(N)Oc2c(N)cc3nc4ccccc4nc3c2C12C(=O)N(Cc1cnnn1-c1ccc(F)c(Cl)c1)c1ccccc12 (configuration not stated) | > 50 | > 50
> 50 | 39.6 | > 50 | > 50 | Cc1cccc(-n2nncc2CN2C(=O)C3(C(C#N)=C(N)Oc4c3c3nc5ccccc5nc3c3ccccc43)c3ccccc32)c1 (configuration not stated) | > 50 | > 50
37.6 | > 50 | 16.5 | > 50 | CCc1cccc(CC)c1-n1nncc1CN1C(=O)C2(C(C#N)=C(N)Oc3c(N)cc4nc5ccccc5nc4c32)c2ccccc21 (configuration not stated) | > 50 | > 50
> 50 | > 50 | > 50 | > 50 | Cc1ccccc1-n1nncc1CN1C(=O)C2(C(C#N)=C(N)Oc3c2c2nc4ccccc4nc2c2ccccc32)c2ccccc21 (configuration not stated) | > 50 | > 50
12.1 | > 50 | 37.8 | 37.8 | N#CC1=C(N)Oc2c(N)cc3nc4ccccc4nc3c2C12C(=O)N(Cc1cnnn1-c1c(Cl)cc(Cl)cc1Cl)c1ccccc12 (configuration not stated) | 18.3 | > 50
> 50 | > 50 | > 50 | > 50 | Cc1cc(C)cc(-n2nncc2CN2C(=O)C3(C(C#N)=C(N)Oc4c3c3nc5ccccc5nc3c3ccccc43)c3ccccc32)c1 (configuration not stated) | > 50 | > 50
> 50 | > 50 | > 50 | > 50 | Cc1ccc(-n2nncc2CN2C(=O)C3(C(C#N)=C(N)Oc4c3c3nc5ccccc5nc3c3ccccc43)c3ccccc32)cc1C (configuration not stated) | > 50 | > 50
> 50 | 12.3 | > 50 | > 50 | Cc1cccc(-n2nncc2CN2C(=O)C3(C(C#N)=C(N)Oc4c(N)cc5nc6ccccc6nc5c43)c3ccccc32)c1 (configuration not stated) | > 50 | > 50
> 50 | > 50 | > 50 | 26.8 | CCOc1ccc(-n2nncc2CN2C(=O)C3(C(C#N)=C(N)Oc4c(N)cc5nc6ccccc6nc5c43)c3ccccc32)cc1 (configuration not stated) | > 50 | > 50
> 50 | 12.7 | 48.1 | > 50 | Cc1cc(C)c(-n2nncc2CN2C(=O)C3(C(C#N)=C(N)Oc4c(N)cc5nc6ccccc6nc5c43)c3ccccc32)c(C)c1 (configuration not stated) | > 50 | > 50
> 50 | 42.6 | > 50 | > 50 | N#CC1=C(N)Oc2c(c3nc4ccccc4nc3c3ccccc23)C12C(=O)N(Cc1cnnn1-c1ccccc1Cl)c1ccccc12 (configuration not stated) | > 50 | > 50
> 50 | > 50 | > 50 | > 50 | N#CC1=C(N)Oc2c(c3nc4ccccc4nc3c3ccccc23)C12C(=O)N(Cc1cnnn1-c1cc(Cl)ccc1Cl)c1ccccc12 (configuration not stated) | > 50 | > 50
26.1 | 18.9 | > 50 | > 50 | N#CC1=C(N)Oc2c(N)cc3nc4ccccc4nc3c2C12C(=O)N(Cc1cnnn1-c1cccc(Br)c1)c1ccccc12 (configuration not stated) | > 50 | > 50
> 50 | > 50 | > 50 | > 50 | CC(=O)Nc1ccc(-n2nncc2CN2C(=O)C3(C(C#N)=C(N)Oc4c(N)cc5nc6ccccc6nc5c43)c3ccccc32)cc1 (configuration not stated) | > 50 | > 50
> 50 | > 50 | > 50 | > 50 | COc1cc(-n2nncc2CN2C(=O)C3(C(C#N)=C(N)Oc4c(N)cc5nc6ccccc6nc5c43)c3ccccc32)c(OC)cc1Cl (configuration not stated) | > 50 | > 50
23.9 | > 50 | 18.4 | 20.9 | N#CC1=C(N)Oc2c(N)cc3nc4ccccc4nc3c2C12C(=O)N(Cc1cnnn1-c1ccc([N+](=O)[O-])cc1[N+](=O)[O-])c1ccccc12 (configuration not stated) | > 50 | 22.8
> 50 | > 50 | > 50 | > 50 | N#CC1=C(N)Oc2c(c3nc4ccccc4nc3c3ccccc23)C12C(=O)N(Cc1cnnn1-c1ccc(Cl)c(Cl)c1)c1ccccc12 (configuration not stated) | > 50 | > 50
> 50 | > 50 | > 50 | > 50 | Cc1ccc(Cl)cc1-n1nncc1CN1C(=O)C2(C(C#N)=C(N)Oc3c2c2nc4ccccc4nc2c2ccccc32)c2ccccc21 (configuration not stated) | > 50 | > 50
